row,Structure (SMILES),melting point [°C]
1,"N#C/C(=C\c1c(F)cccc1F)C(=O)Nc1ccc2c(c1)S(=O)(=O)C=C2 [HJC-5-91, 2-Cyano-3-(2,6-difluorophenyl)-N-(1,1-dioxo-1H-1λ^6-benzo[b]thiophen-6-yl)acrylamide]",253 to 254
2,"N#C/C(=C\c1ccc(Br)cc1)C(=O)Nc1ccc2c(c1)S(=O)(=O)C=C2 [RMF-1-8, 3-(4-Bromophenyl)-2-cyano-N-(1,1-dioxo-1H-1λ^6-benzo[b]thiophen-6-yl)acrylamide]",289 to 290
3,"N#C/C(=C\c1c[nH]c2ncccc12)C(=O)Nc1ccc2c(c1)S(=O)(=O)C=C2 [RMF-1-17, 2-Cyano-N-(1,1-dioxo-1H-1λ^6-benzo[b]thiophen-6-yl)-3-(1H-pyrrolo[2,3-b]pyridin-3-yl)acrylamide]",300 to 301
4,"N#C/C(=C\c1ccncc1)C(=O)Nc1ccc2c(c1)S(=O)(=O)C=C2 [RMF-1-23, 2-Cyano-N-(1,1-dioxo-1H-1λ^6-benzo[b]thiophen-6-yl)-3-pyridin-4-yl-acrylamide]",288 to 289
5,O=C(Nc1ccc2c(c1)S(=O)(=O)C=C2)c1c2ccccc2nc2ccccc12,237 to 238
6,"CN(C)c1ccc(/C=C(\C#N)C(=O)Nc2ccc3c(c2)S(=O)(=O)C=C3)cc1 [RMF-1-16, 2-Cyano-3-(4-dimethylaminophenyl)-N-(1,1-dioxo-1H-1λ^6-benzo[b]thiophen-6-yl)acrylamide]",279 to 280
7,"COc1ccc(/C=C(\C#N)C(=O)Nc2ccc3c(c2)S(=O)(=O)C=C3)cc1 [RMF-1-13, 2-Cyano-N-(1,1-dioxo-1H-1λ^6-benzo[b]thiophen-6-yl)-3-(4-methoxyphenyl)acrylamide]",275 to 276
8,"O=C(Nc1nnc(-c2ccco2)o1)c1cc(Cl)ccc1O [Compound 13, 5-Chloro-N-(5-furan-2-yl-[1,3,4]oxadiazol-2-yl)-2-hydroxybenzamide]",196 to 197
9,"N#C/C(=C\C1CCCCC1)C(=O)Nc1ccc2c(c1)S(=O)(=O)C=C2 [RMF-1-20, 2-Cyano-3-cyclohexyl-N-(1,1-dioxo-1H-1λ^6-benzo[b]thiophen-6-yl)acrylamide]",180 to 181
10,"N#C/C(=C\c1cccc([N+](=O)[O-])c1)C(=O)Nc1ccc2c(c1)S(=O)(=O)C=C2 [RMF-1-15, 2-Cyano-N-(1,1-dioxo-1H-1λ^6-benzo[b]thiophen-6-yl)-3-(3-nitrophenyl)acrylamide]",269 to 270

# The next lines start with the values.
row,melting point [°C],Structure (SMILES)
1,284 to 285,"N#C/C(=C\c1ccccc1O)C(=O)Nc1ccc2c(c1)S(=O)(=O)C=C2 [RMF-1-9, 2-Cyano-N-(1,1-dioxo-1H-1λ^6-benzo[b]thiophen-6-yl)-3-(2-hydroxyphenyl)acrylamide]"
2,250 to 251,"N#C/C(=C\c1cccc(Br)c1)C(=O)Nc1ccc2c(c1)S(=O)(=O)C=C2 [RMF-1-32, 3-(3-Bromophenyl)-2-cyano-N-(1,1-dioxo-1H-1λ^6-benzo[b]thiophen-6-yl)acrylamide]"
3,234 to 235,"N#C/C(=C\c1ccccn1)C(=O)Nc1ccc2c(c1)S(=O)(=O)C=C2 [HJC-5-90, 2-Cyano-N-(1,1-dioxo-1H-1λ^6-benzo[b]thiophen-6-yl)-3-pyridin-2-yl-acrylamide]"
4,221 to 222,"Cc1cccc(/C=C(\C#N)C(=O)Nc2ccc3c(c2)S(=O)(=O)C=C3)n1 [HJC-5-88, 2-Cyano-N-(1,1-dioxo-1H-1λ^6-benzo[b]thiophen-6-yl)-3-(6-methyl-pyridin-2-yl)acrylamide]"
5,242 to 243,"N#C/C(=C\c1ccccc1Cl)C(=O)Nc1ccc2c(c1)S(=O)(=O)C=C2 [RMF-1-33, 3-(2-Chlorophenyl)-2-cyano-N-(1,1-dioxo-1H-1λ^6-benzo[b]thiophen-6-yl)acrylamide]"
6,306 to 307,"N#C/C(=C\c1ccc(O)cc1)C(=O)Nc1ccc2c(c1)S(=O)(=O)C=C2 [RMF-1-11, 2-Cyano-N-(1,1-dioxo-1H-1λ^6-benzo[b]thiophen-6-yl)-3-(4-hydroxyphenyl)acrylamide]"
7,234 to 235,"N#C/C(=C\c1cccc(Cl)c1)C(=O)Nc1ccc2c(c1)S(=O)(=O)C=C2 [HJC-5-89, 3-(3-Chlorophenyl)-2-cyano-N-(1,1-dioxo-1H-1λ^6-benzo[b]thiophen-6-yl)acrylamide]"
8,226 to 227,"N#C/C(=C\c1ccccc1Br)C(=O)Nc1ccc2c(c1)S(=O)(=O)C=C2 [RMF-1-7, 3-(2-Bromophenyl)-2-cyano-N-(1,1-dioxo-1H-1λ^6-benzo[b]thiophen-6-yl)acrylamide]"
9,261 to 262,"COc1ncccc1/C=C(\C#N)C(=O)Nc1ccc2c(c1)S(=O)(=O)C=C2 [RMF-1-27, 2-Cyano-N-(1,1-dioxo-1H-1λ^6-benzo[b]thiophen-6-yl)-3-(2-methoxy-pyridin-3-yl)acrylamide]"
